This passage reports EC50 results from ChEMBL document CHEMBL2150879, “Novel indolethylbenzamides for the treatment of tauopathies: patent highlight” (ACS Med Chem Lett, 2012).

The test is described as follows: Inhibition of Tau P301L mutant-mediated cytotoxicity in human M17 cells by LDH assay. It counts as cell-based.

As for `O=C(NCCc1c[nH]c2ccc(Cl)cc12)c1cccc(Cc2ccccc2)c1`, the EC50 (as a rule, the concentration giving half of the maximal effect) is 78 nM.

For the compound `O=C(NCCc1c[nH]c2ccc(F)cc12)c1ccc(Cn2ccnc2)cc1`, a half-maximal response (EC50) required 486 nM.

Take `O=C(NCCc1c[nH]c2ccc(Cl)cc12)c1cccc(Nc2ccccc2)c1`: the EC50 worked out at 94 nM.

For `O=C(NCCc1c[nH]c2ccc(Cl)cc12)c1ccc(Cc2cccc(F)c2)cc1`, a half-maximal effect (EC50) was put at 13 nM.

`COc1ccc(Cc2ccc(C(=O)NCCc3c[nH]c4ccc(Cl)cc34)cc2)cc1` returned a 50% effective concentration (EC50) of 147 nM.

As for `N#Cc1ccc(Cc2ccc(C(=O)NCCc3c[nH]c4ccc(Cl)cc34)cc2)cc1`, the EC50 is 16 nM.

The compound `O=C(NCCc1c[nH]c2ccc(Cl)cc12)c1cccc(Cc2cncc(F)c2)c1` returned an EC50 of 90 nM.

The compound `O=C(NCCc1c[nH]c2ccc(Cl)cc12)c1ccc(Cc2cccc(Cl)c2)cc1` registered an EC50 of 7 nM.

Regarding `N#Cc1cccc(Cc2ccc(C(=O)NCCc3c[nH]c4ccc(Cl)cc34)cc2)c1`, the EC50 was 14 nM.
